Here are results for 12 compounds from patent US20140329863A1 (priority 2011, published 2014).

Data set [1] in a line: Binding in human plasma. The settings on record: 1 μM; mean ± SD, n = 3 (warfarin n = 2).
Data set [2] is described as follows: Hepatic microsomal stability, rat. As to conditions: […].
Data set [3] deals with PrP^Sc in nondividing ScN2a-cl3 cells. The class given is cell-based, mouse. As to conditions: read-out: Non-Dividing ELISA EC50 (μM) Mean (n = 3); ScN2a-c13 non-dividing cells; mean n = 3.
The subject of data set [4] is PrP^Sc in dividing ScN2a-cl3 cells. The class given is cell-based, mouse. Also on record: Dividing ELISA pEC50 (μM) 1st Expt. / Dividing ELISA pEC50 (μM) 2nd Expt. / Dividing ELISA pEC50 (μM) 3rd Expt. / Dividing ELISA pEC50 (μM) Mean: unit not given here.
Data set [5] has as its system N2a-cl3 cells. Nature of the data set: cells. As to conditions: Mus musculus, N2a-cl3, read-out: Dividing Calcein EC50 (μM) Mean (n = 3).
The conditions of data set [6]: […].
The subject of data set [7] is MDCK-MDR^1 cells (P-glycoprotein). Nature of the data set: Bidirectional MDCK-MDR1 cell permeability. The class given is in vitro ADME, canine. Here is the method: MDCK-MDR^1 cells were grown to confluence for 5-10 days on 1-μm filters in 24-well plates {Hilgers, 1990}. Aliquots of DMSO stocks were diluted into Hank's balanced salt solution (HBSS), pH 7.4, containing […] to give 10-μM solute concentration. The solute containing donor solutions were transferred to either the apical or basolateral chamber of the permeability diffusion apparatus. Receiver solutions consisted of HBSS (pH 7.4) containing 25 mM HEPES+0.05% PS80. Sequential samples of transported solute were taken at 20-min intervals using an automated liquid handling platform. The concentration of transported solute during each sampling interval was determined by HPLC/UV/MS. Permeability coefficients were calculated for each sampling interval. The average and standard deviation from the intervals are reported. Mass balance in the system was ascertained by comparing the sum of total transported solute and remaining donor solute with the starting mass of solute and is expressed as a percentage of donor solute at time zero. […] In the event of mass balance less than 70%, the cell monolayers were extracted with ACN and analyzed for the solute of interest. Determinations were conducted in duplicate.

The nature of data set [8]: physchem.
In data set [9] the test system is ScN2a-c13 cells. Description: cells. As to conditions: Mus musculus; N=3; read-out: EC50 by calcein for cell viability. The class given is cell-based.
Data set [10] concerns PrP^Sc in dividing ScN2a-c13 cells. The settings on record: read-out: EC50 (ELISA), reduction of PrP^Sc load; dividing ScN2a-c13 cells. On the technique in general: ELISA stands for enzyme-linked immunosorbent assay.
A short description of data set [11]: Multiple-dose (three-day) pharmacokinetic studies in FVB mice, drug in liquid diet. As to conditions: three days in liquid diet, higher doses (up to 210 mg/kg/day). The class given is in vivo, mouse. Here is the method: Aminothiazole analog (e.g., 4.5 g of 27) was added to 15 mL of pure PEG400, vortexed and sonicated to ensure dissolution, then stored at −4° C. until needed. This highly concentrated PEG400 solution was subsequently diluted to final dosing concentrations, where the volume added was composed of homogenized solid rodent feed, cocoa (taste masking agent), and water. Wild-type FVB mice weigh ˜25 gm and typically drink 20 mL of liquid diet per day, allowing an estimate of daily drug consumption. A single dosing cohort consisted of three mice in a shared cage and liquid diet was provided at the start of the study in sufficient volume to last for the entire three-day trial (˜200 mL). At the end of the three-day dosing period, animals were euthanized by CO2, followed by collection of plasma (cardiac puncture) and removal of whole brain. Heparinized blood was centrifuged to separate plasma and both plasma and brain samples were stored at −80° C. prior to analysis. Plasma samples were prepared for analysis by precipitating proteins and reconstituting the remaining fraction with HPLC mobile phase. Brain samples were typically prepared by four-fold dilution with water after weighing, then homogenized using bead-beater or Polytron™ resulting in a highly concentrated solution that was further diluted with mobile phase as appropriate in preparation for bioanalytical analysis using LC-MS. Analysis was by LC-MS (Shimadzu dual-HPLC pumps, C18 analytical column, with detection using an Applied Biosystems API-4000 triple quadrupole mass spectrometer).
Ten compounds were selected from among the 34 2-AMTs for three-day multiple-dose PK studies at PO doses ranging from 40-210 mg/kg. Selection was based on diversity in potency, chemical structure, and a range of physicochemical properties. We used a liquid diet to facilitate easy drug administration, as well as serve as the daily source of all water and food. This approach was chosen because the mouse bioassay studies that would be used to assess drug effects on survival would be expected to run for 110 to 400 days, or more; gavage dosing for such a long period is not feasible and more stressful to mice. For the multiple-dose PK studies, 4.5 g of the 2-AMT analogs was added to 15 mL of pure PEG400, vortexed and sonicated to ensure dissolution, then stored at −4° C. until needed. This highly concentrated PEG400 solution was subsequently diluted to final dosing concentrations and added to the rodent liquid diet, cocoa (taste-masking agent), and water.
Wild-type FVB mice weigh ˜25 g and typically drink 20 mL of liquid diet per day, allowing an estimate of daily drug consumption. A single dosing cohort consisted of three mice in a shared cage and liquid diet was provided at the start of the study in sufficient volume (˜200 mL) to last for the entire three-day period. At the end of the dosing period, animals were euthanized by CO2, followed by collection of plasma (cardiac puncture) and removal of whole brain. Samples were processed and stored as described above for the 10 mg/kg single-dose studies.
Plasma and brain homogenate samples were extracted using a protein-precipitation method and analyzed by specific LC/MS/MS methods developed for each compound dosed in vivo. The analytical method accuracy and precision were monitored by analyzing quality control (QC) samples that were prepared by the same methods as the plasma or brain homogenate samples. The brain and plasma concentration data were used to calculate the maximal concentration (Cmax), area under the concentration-time curve (AUClast), and absolute bioavailability (% F) by noncompartmental analysis with sparse sampling performed using Phoenix WinNonlin 6.1 software (Pharsight, Mountain View, Calif.).

Data set [12] concerns MDCK-MDR1 cells. Description: Permeability in MDCK-MDR1 cells. The settings on record: MDR1-MDCK cell monolayers; for Permeability PA→B: apical to basal; for Permeability PB→A: basal to apical.
Test in data set [13]: not given
This is another data set of the same source.

The mark [14] stands for this setting: read-out: Dividing ELISA EC50 (μM) 1st Expt., ScN2a-cl3 dividing cells, 1st determination.
Where [15] appears, read: pH 1.2, simulated gastric fluid.
The mark [16] stands for this setting: ScN2a-cl3 dividing cells, 1st determination.
[17] abbreviates: ScN2a-cl3 dividing cells, 2nd determination.
Where [18] appears, read: ScN2a-cl3 dividing cells, 3rd determination.
[19] abbreviates: read-out: Antiprion activity ScN2a-cl3 EC50, ScN2a-cl3 cells.
[20] abbreviates: read-out: Dividing ELISA EC50 (μM) 2nd Expt., ScN2a-cl3 dividing cells, 2nd determination.
The mark [21] stands for this setting: read-out: Dividing ELISA EC50 (μM) 3rd Expt., ScN2a-cl3 dividing cells, 3rd determination.
Setting [22] is: read-out: Dividing ELISA EC50 (μM) Mean, ScN2a-cl3 dividing cells, mean of three determinations.

≈ marks a conversion by molar mass, not a printed value. Like-named read-outs stand apart in the source and are kept apart here.

As for `CC(=O)CC(c1ccccc1)c1c(O)c2ccccc2oc1=O` (stereo not shown) [Warfarin, warfarin, reference compound], in [1], the “Unbound (%), Human Plasma” value amounted to 0.68 ± 0.0023%.

Broadly, the EC50 is the concentration at which the effect is half-maximal. `COc1ccc(-c2csc(Nc3cc4ccccc4cn3)n2)cc1OC` [compound 17, [4-(3,4-dimethoxyphenyl)-thiazol-2-yl]isoquinolin-3-yl-amine]: the “Microsome stability T1/2” value in data set [2] was 1.38 h. Besides, the EC50 was greater than 32 µM in [3], 0.101 µM in data set [4] (setting [14]) and greater than 32 µM in data set [5]. Besides, in data set [6], the “metabolic stability (in words)” value is recorded as “excellent stability”. The “P-gp substrate status, absorptive vs secretory permeability” value in data set [7] was “greater permeability in the absorptive direction”.

A word on the solubility: it is the dissolved amount per volume that the medium holds. For `Cc1cccc(Nc2nc(-c3ccc(-c4ccnc(N(C)C)c4)cc3)cs2)n1` [IND-0116095], the “Analiza solubility (μM) pH 1.2” value is given as greater than 150 μM. The compound also registered a solubility in [8] (setting [15]) greater than 150 µM. The compound also had a solubility in data set [8] (pH 7.4, aqueous buffer) of 1.6 µM (≈ 0.62 µg/mL).

As to `COCCOc1cc(-c2ccc(-c3csc(Nc4cccc(C)n4)n3)cc2)ccn1` [IND-0116099], the “Analiza solubility (μM) pH 7.4” value is listed as less than 0.5 μM. The solubility in data set [8] (setting [15]) is 126 µM (≈ 52.5 µg/mL). Besides, the solubility in data set [8] (pH 7.4, aqueous buffer) is less than 0.5 µM.

Take `COc1ccc(Nc2nc(-c3cc(-c4ccccc4)no3)cs2)nc1` [IND120, (5-Methoxy-pyridin-2-yl)-[4-(3-phenyl-isoxazol-5-yl)-thiazol-2-yl]-amine]: the EC50 in data set [9] is greater than 10000 nM; in [10], 229 nM; in [4] (AMT analogs tested for potency) it was 0.229 µM.

In the case of `Cc1cccc(Nc2nc(-c3ccc(-c4ccc(OCC#N)nc4)cc3)cs2)n1` [IND-0116165], the “Analiza solubility (μM) pH 7.4” value was less than 0.4 μM. This compound also returned a solubility in data set [8] (setting [15]) of 2.2 µM (≈ 0.879 µg/mL). The compound also returned a solubility in data set [8] (pH 7.4, aqueous buffer) of less than 0.4 µM.

On to `Cc1cccc(Nc2nc(-c3ccc(-c4ccnc(OC(C)C)c4)cc3)cs2)n1` [IND-0116096], for which the “Analiza solubility (μM) pH 1.2” value is reported as greater than 150 μM. For the same compound, the solubility in data set [8] (setting [15]) was greater than 150 µM. The concentration in solution in data set [8] (pH 7.4, aqueous buffer) (solubility) was 3.1 µM (≈ 1.25 µg/mL).

As for `CN(C)c1cccc(Nc2nc(-c3ccc(-c4ccccc4)cc3)cs2)n1` [IND-0116142], the “Analiza solubility (μM) pH 7.4” value was less than 0.5 μM. In addition, the concentration in solution in [8] (setting [15]) (solubility) was 16.1 µM (≈ 6 µg/mL). The solubility in data set [8] (pH 7.4, aqueous buffer) was less than 0.5 µM.

In the case of `Cc1ccc(Nc2nc(-c3cc(-c4ccccc4)no3)cs2)nc1` [compound 27, (5-Methylpyridin-2-yl)-[4-(3-phenylisoxazol-5-yl)-thiazol-2-yl]-amine], the “Microsome stability T1/2” value in [2] came out at 2.52 h. Also, the “mean brain concentration in excess of EC50” value in [11] is recorded as no more than 25 fold. Moreover, the “Permeability PA→B” value in data set [12] was 6.8 10^−6 cm/sec. The “Permeability PB→A” value in data set [12] was 8.3 10^−6 cm/sec. For the same compound, the 50% effective concentration (EC50) in data set [3] was greater than 32 µM; in data set [10], 940 nM; in data set [4] (setting [19]), 0.94 µM; in data set [4] (setting [14]), 1.09 µM; in [4] (setting [20]), 0.747 µM; in [4] (setting [21]), 0.994 µM. The concentration giving a half-maximal response (EC50) in [4] (setting [22]) is 0.945 µM; in data set [5] it was greater than 32 µM. Further, in data set [4] (setting [16]), the “Dividing ELISA pEC50 (μM) 1st Expt.” value worked out at 5.96. Further, the “Dividing ELISA pEC50 (μM) 2nd Expt.” value in [4] (setting [17]) is recorded as 6.13. Moreover, the “Dividing ELISA pEC50 (μM) 3rd Expt.” value in data set [4] (setting [18]) is 6.00. Moreover, the “Dividing ELISA pEC50 (μM) Mean” value in [4] (ScN2a-cl3 dividing cells, mean of three determinations) is 6.03. For the same compound, the “metabolic stability (in words)” value in [6] is “excellent stability”.

As usually defined, the melting point is the temperature of the solid-liquid transition. Turning to `Cc1ccc(Nc2nc(-c3c(-c4ccccc4)noc3C)cs2)nc1` [compound 28, [4-(5-Methyl-3-phenylisoxazol-4-yl)-thiazol-2-yl]-(5-methylpyridin-2-yl)-amine], in data set [13], the melting point was 267 to 269 °C. The “Microsome stability T1/2” value in [2] came to 0.317 h. Moreover, in data set [12], the “Permeability PA→B” value is on record as 11.2 10^−6 cm/sec. The “Permeability PB→A” value in data set [12] is 8.6 10^−6 cm/sec. The EC50 in [3] was greater than 32 µM; in [4] (setting [19]), greater than 26 µM; in [4] (setting [14]) it was 30 µM; in [4] (setting [20]), 15.2 µM; in data set [4] (setting [21]), greater than 32 µM; in data set [4] (setting [22]), greater than 26 µM. Besides, the EC50 in data set [5] is greater than 32 µM. In data set [4] (setting [16]), the “Dividing ELISA pEC50 (μM) 1st Expt.” value stood at 4.52. Besides, the “Dividing ELISA pEC50 (μM) 2nd Expt.” value in data set [4] (setting [17]) is given as 4.82. In addition, in data set [4] (setting [18]), the “Dividing ELISA pEC50 (μM) 3rd Expt.” value is reported as greater than 4.5. Further, the “P-gp substrate status, absorptive vs secretory permeability” value in data set [7] was “greater permeability in the absorptive direction”.

For the compound `COc1ccnc(Nc2nc(-c3cc(-c4ccccc4)no3)cs2)c1` [IND112, (4-Methoxy-pyridin-2-yl)-[4-(3-phenyl-isoxazol-5-yl)-thiazol-2-yl]-amine], the EC50 in [9] was greater than 10000 nM; in data set [10], 251 nM; in data set [4] (AMT analogs tested for potency) it was 0.251 µM.

For `Cc1cccc(Nc2nc(-c3ccc(-c4ccnc(OCC#N)c4)cc3)cs2)n1` [IND-0116138], the “Analiza solubility (μM) pH 1.2” value was greater than 150 μM and the “Analiza solubility (μM) pH 7.4” value is reported as less than 0.4 μM. The same compound registered a solubility in data set [8] (setting [15]) greater than 150 µM. The same compound displayed a solubility in data set [8] (pH 7.4, aqueous buffer) of less than 0.4 µM.
